Measured values published in the NIST ThermoML archive (doi:10.1016/j.jct.2017.07.008).
“And” between values parts separate entries of the source, which are not always exact repeats. Equal entries are not always repeated.

Settings: for surface tension liquid-gas: Drop volume; for viscosity / speed of sound / mass density: Liquid; for viscosity: Capillary tube (Ostwald / Ubbelohde) method; for speed of sound: Frequency=3 MHz, Single path-length method; for mass density: Vibrating tube method

O=Cc1cccs1 [2-thiophenealdehyde]
Settings | surface tension liquid-gas [mN/m]
283.15 K | 47.82
285.65 K | 47.52
288.15 K | 47.22
290.65 K | 46.92
293.15 K | 46.6
295.65 K | 46.27
298.15 K | 45.99
300.65 K | 45.68
303.15 K | 45.4
305.65 K | 45.08
308.15 K | 44.75
310.65 K | 44.48
313.15 K | 44.17

Settings | mass density | speed of sound [m/s] | viscosity [mPa·s]
283.15 K, 100 kPa | 1232.44 kg/m3 and 1232.47 kg/m3 | 1512.8 | 2.796
283.15 K, 2000 kPa | 1233.56 kg/m3 | – | –
283.15 K, 5000 kPa | 1235.26 kg/m3 | – | –
283.15 K, 7000 kPa | 1236.39 kg/m3 | – | –
283.15 K, 10000 kPa | 1238.06 kg/m3 | – | –
283.15 K, 15000 kPa | 1240.76 kg/m3 | – | –
283.15 K, 20000 kPa | 1243.38 kg/m3 | – | –
283.15 K, 25000 kPa | 1245.94 kg/m3 | – | –
283.15 K, 30000 kPa | 1248.47 kg/m3 | – | –
283.15 K, 35000 kPa | 1250.93 kg/m3 | – | –
283.15 K, 40000 kPa | 1253.33 kg/m3 | – | –
283.15 K, 45000 kPa | 1255.69 kg/m3 | – | –
283.15 K, 50000 kPa | 1258.02 kg/m3 | – | –
283.15 K, 55000 kPa | 1260.26 kg/m3 | – | –
283.15 K, 60000 kPa | 1262.44 kg/m3 | – | –
283.15 K, 65000 kPa | 1264.58 kg/m3 | – | –
285.65 K, 100 kPa | 1229.92 kg/m3 | 1504.3 | 2.661
288.15 K, 100 kPa | 1227.39 kg/m3 | 1495.9 | 2.513
288.15 K, 2000 kPa | 1228.51 kg/m3 | – | –
288.15 K, 5000 kPa | 1230.24 kg/m3 | – | –
288.15 K, 7000 kPa | 1231.38 kg/m3 | – | –
288.15 K, 10000 kPa | 1233.07 kg/m3 | – | –
288.15 K, 15000 kPa | 1235.82 kg/m3 | – | –
288.15 K, 20000 kPa | 1238.51 kg/m3 | – | –
288.15 K, 25000 kPa | 1241.13 kg/m3 | – | –
288.15 K, 30000 kPa | 1243.69 kg/m3 | – | –
288.15 K, 35000 kPa | 1246.2 kg/m3 | – | –
288.15 K, 40000 kPa | 1248.64 kg/m3 | – | –
288.15 K, 45000 kPa | 1251.04 kg/m3 | – | –
288.15 K, 50000 kPa | 1253.38 kg/m3 | – | –
288.15 K, 55000 kPa | 1255.68 kg/m3 | – | –
288.15 K, 60000 kPa | 1257.93 kg/m3 | – | –
288.15 K, 65000 kPa | 1260.14 kg/m3 | – | –
290.65 K, 100 kPa | 1224.88 kg/m3 | 1487.4 | 2.386
293.15 K, 100 kPa | 1222.35 kg/m3 and 1222.36 kg/m3 | 1479.1 | 2.267
293.15 K, 2000 kPa | 1223.5 kg/m3 | – | –
293.15 K, 5000 kPa | 1225.27 kg/m3 | – | –
293.15 K, 7000 kPa | 1226.44 kg/m3 | – | –
293.15 K, 10000 kPa | 1228.16 kg/m3 | – | –
293.15 K, 15000 kPa | 1230.98 kg/m3 | – | –
293.15 K, 20000 kPa | 1233.73 kg/m3 | – | –
293.15 K, 25000 kPa | 1236.41 kg/m3 | – | –
293.15 K, 30000 kPa | 1239.02 kg/m3 | – | –
293.15 K, 35000 kPa | 1241.57 kg/m3 | – | –
293.15 K, 40000 kPa | 1244.07 kg/m3 | – | –
293.15 K, 45000 kPa | 1246.51 kg/m3 | – | –
293.15 K, 50000 kPa | 1248.9 kg/m3 | – | –
293.15 K, 55000 kPa | 1251.24 kg/m3 | – | –
293.15 K, 60000 kPa | 1253.53 kg/m3 | – | –
293.15 K, 65000 kPa | 1255.77 kg/m3 | – | –
295.65 K, 100 kPa | 1219.84 kg/m3 | 1470.8 | 2.162
298.15 K, 100 kPa | 1217.32 kg/m3 | 1462.4 | 2.053
298.15 K, 2000 kPa | 1218.49 kg/m3 | – | –
298.15 K, 5000 kPa | 1220.31 kg/m3 | – | –
298.15 K, 7000 kPa | 1221.5 kg/m3 | – | –
298.15 K, 10000 kPa | 1223.27 kg/m3 | – | –
298.15 K, 15000 kPa | 1226.15 kg/m3 | – | –
298.15 K, 20000 kPa | 1228.95 kg/m3 | – | –
298.15 K, 25000 kPa | 1231.69 kg/m3 | – | –
298.15 K, 30000 kPa | 1234.36 kg/m3 | – | –
298.15 K, 35000 kPa | 1236.96 kg/m3 | – | –
298.15 K, 40000 kPa | 1239.51 kg/m3 | – | –
298.15 K, 45000 kPa | 1242 kg/m3 | – | –
298.15 K, 50000 kPa | 1244.43 kg/m3 | – | –
298.15 K, 55000 kPa | 1246.81 kg/m3 | – | –
298.15 K, 60000 kPa | 1249.14 kg/m3 | – | –
298.15 K, 65000 kPa | 1251.43 kg/m3 | – | –
300.65 K, 100 kPa | 1214.8 kg/m3 | 1454 | 1.96
303.15 K, 100 kPa | 1212.28 kg/m3 and 1212.29 kg/m3 | 1445.7 | 1.875
303.15 K, 2000 kPa | 1213.48 kg/m3 | – | –
303.15 K, 5000 kPa | 1215.34 kg/m3 | – | –
303.15 K, 7000 kPa | 1216.56 kg/m3 | – | –
303.15 K, 10000 kPa | 1218.37 kg/m3 | – | –
303.15 K, 15000 kPa | 1221.32 kg/m3 | – | –
303.15 K, 20000 kPa | 1224.19 kg/m3 | – | –
303.15 K, 25000 kPa | 1226.98 kg/m3 | – | –
303.15 K, 30000 kPa | 1229.71 kg/m3 | – | –
303.15 K, 35000 kPa | 1232.36 kg/m3 | – | –
303.15 K, 40000 kPa | 1234.96 kg/m3 | – | –
303.15 K, 45000 kPa | 1237.49 kg/m3 | – | –
303.15 K, 50000 kPa | 1239.97 kg/m3 | – | –
303.15 K, 55000 kPa | 1242.4 kg/m3 | – | –
303.15 K, 60000 kPa | 1244.77 kg/m3 | – | –
303.15 K, 65000 kPa | 1247.09 kg/m3 | – | –
305.65 K, 100 kPa | 1209.76 kg/m3 | 1437.3 | 1.797
308.15 K, 100 kPa | 1207.25 kg/m3 | 1429 | 1.728
308.15 K, 2000 kPa | 1208.47 kg/m3 | – | –
308.15 K, 5000 kPa | 1210.38 kg/m3 | – | –
308.15 K, 7000 kPa | 1211.63 kg/m3 | – | –
308.15 K, 10000 kPa | 1213.48 kg/m3 | – | –
308.15 K, 15000 kPa | 1216.49 kg/m3 | – | –
308.15 K, 20000 kPa | 1219.43 kg/m3 | – | –
308.15 K, 25000 kPa | 1222.28 kg/m3 | – | –
308.15 K, 30000 kPa | 1225.06 kg/m3 | – | –
308.15 K, 35000 kPa | 1227.77 kg/m3 | – | –
308.15 K, 40000 kPa | 1230.42 kg/m3 | – | –
308.15 K, 45000 kPa | 1233 kg/m3 | – | –
308.15 K, 50000 kPa | 1235.53 kg/m3 | – | –
308.15 K, 55000 kPa | 1238 kg/m3 | – | –
308.15 K, 60000 kPa | 1240.41 kg/m3 | – | –
308.15 K, 65000 kPa | 1242.78 kg/m3 | – | –
310.65 K, 100 kPa | 1204.73 kg/m3 | 1420.7 | 1.654
313.15 K, 100 kPa | 1202.21 kg/m3 | 1412.4 | 1.59
313.15 K, 2000 kPa | 1203.46 kg/m3 | – | –
313.15 K, 5000 kPa | 1205.41 kg/m3 | – | –
313.15 K, 7000 kPa | 1206.7 kg/m3 | – | –
313.15 K, 10000 kPa | 1208.59 kg/m3 | – | –
313.15 K, 15000 kPa | 1211.67 kg/m3 | – | –
313.15 K, 20000 kPa | 1214.67 kg/m3 | – | –
313.15 K, 25000 kPa | 1217.59 kg/m3 | – | –
313.15 K, 30000 kPa | 1220.43 kg/m3 | – | –
313.15 K, 35000 kPa | 1223.19 kg/m3 | – | –
313.15 K, 40000 kPa | 1225.89 kg/m3 | – | –
313.15 K, 45000 kPa | 1228.52 kg/m3 | – | –
313.15 K, 50000 kPa | 1231.1 kg/m3 | – | –
313.15 K, 55000 kPa | 1233.61 kg/m3 | – | –
313.15 K, 60000 kPa | 1236.07 kg/m3 | – | –
